Assays:
Conditions in all cases: drug exposure time: 96 h
Sirolimus = compound: CO[C@H]1C[C@@H]2CC[C@@H](C)[C@@](O)(O2)C(=O)C(=O)N2CCCC[C@H]2C(=O)O[C@H]([C@H](C)C[C@@H]2CC[C@@H](O)[C@H](OC)C2)CC(=O)[C@H](C)/C=C(\C)[C@@H](O)[C@@H](OC)C(=O)[C@H](C)C[C@H](C)/C=C/C=C/C=C/1C [Sirolimus]
Protocol: (§1)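 Same SRB 96 h IC50 screen on breast cancer cell lines (RPMI 1640 + 10% FBS, collagen I-coated 96-well plates, triplicates, 12 dilutions), for drugs with a different dose range: Bortezomib up to 2e-5 M; Sirolimus and 17-AAG up to 2e-6 M. Sirolimus values at the 2e-6 M top dose are censored.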

Bortezomib = compound: CC(C)C[C@H](NC(=O)[C@H](Cc1ccccc1)NC(=O)c1cnccn1)B(O)O [Bortezomib]
Protocol: as §1

17-AAG = compound: C=CCNC1=C2C[C@@H](C)C[C@H](OC)[C@H](O)[C@@H](C)/C=C(\C)[C@H](OC(N)=O)[C@@H](OC)/C=C\C=C(/C)C(=O)NC(=CC1=O)C2=O [17-AAG]
Protocol: as §1

Paclitaxel = compound: CC(=O)O[C@H]1C(=O)[C@@]2(C)[C@H]([C@H](OC(=O)c3ccccc3)[C@]3(O)C[C@H](OC(=O)[C@H](O)[C@@H](NC(=O)c4ccccc4)c4ccccc4)C(C)=C1C3(C)C)[C@]1(OC(C)=O)CO[C@@H]1C[C@@H]2O [Paclitaxel]
Protocol: (§2)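 Breast cancer cell lines were grown in RPMI 1640 with 10% FBS on collagen I-coated 96-well plates and treated for 96 h (from 24 h after seeding) with 12 dilutions per drug, in triplicate. Growth was read by sulforhodamine B total-protein staining (absorbance 570 nm) relative to diluent control, and IC50 was calculated. The top dose was 1e-5 M for most drugs; Bortezomib went to 2e-5 M and Sirolimus and 17-AAG to 2e-6 M[…].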

Vorinostat = compound: O=C(CCCCCCC(=O)Nc1ccccc1)NO [Vorinostat]
Protocol: as §2

Erlotinib = compound: C#Cc1cccc(Nc2ncnc3cc(OCCOC)c(OCCOC)cc23)c1 [Erlotinib]
Protocol: as §2

Brivanib = compound: Cc1cc2c(F)c(Oc3ncnn4cc(OC[C@@H](C)O)c(C)c34)ccc2[nH]1 [Brivanib]
Protocol: as §2

Azacitidine = compound: Nc1ncn([C@@H]2O[C@H](CO)[C@@H](O)[C@H]2O)c(=O)n1 [Azacitidine]
Protocol: as §2

MI-219 = compound: CC(C)(C)C[C@H]1N[C@@H](C(=O)NCC[C@H](O)CO)[C@H](c2cccc(Cl)c2)[C@@]12C(=O)Nc1cc(Cl)c(F)cc12 [MI-219]
Protocol: as §2

Lapatinib = compound: CS(=O)(=O)CCNCc1ccc(-c2ccc3ncnc(Nc4ccc(OCc5cccc(F)c5)c(Cl)c4)c3c2)o1 [Lapatinib]
Protocol: as §2

Serdemetan = compound: c1ccc2c(CCNc3ccc(Nc4ccncc4)cc3)c[nH]c2c1 [Serdemetan]
Protocol: as §2

Belinostat = compound: O=C(/C=C/c1cccc(S(=O)(=O)Nc2ccccc2)c1)NO [Belinostat]
Protocol: as §2

Quisinostat = compound: Cn1cc(CNCC2CCN(c3ncc(C(=O)NO)cn3)CC2)c2ccccc21 [Quisinostat]
Protocol: as §2

Tamoxifen = compound: CC/C(=C(\c1ccccc1)c1ccc(OCCN(C)C)cc1)c1ccccc1 [Tamoxifen]
Protocol: as §2

Doxorubicin = compound: COc1cccc2c1C(=O)c1c(O)c3c(c(O)c1C2=O)C[C@@](O)(C(=O)CO)C[C@@H]3O[C@H]1C[C@H](N)[C@H](O)[C@H](C)O1 [Doxorubicin]
Protocol: as §2

Decitabine = compound: Nc1ncn([C@H]2C[C@H](O)[C@@H](CO)O2)c(=O)n1 [Decitabine]
Protocol: as §2

Nutlin-3 = compound: COc1ccc(C2=N[C@@H](c3ccc(Cl)cc3)[C@@H](c3ccc(Cl)cc3)N2C(=O)N2CCNC(=O)C2)c(OC(C)C)c1 [Nutlin-3]
Protocol: as §2

Sorafenib = compound: CNC(=O)c1cc(Oc2ccc(NC(=O)Nc3ccc(Cl)c(C(F)(F)F)c3)cc2)ccn1 [Sorafenib]
Protocol: as §2

5-Fluorouracil = compound: O=c1[nH]cc(F)c(=O)[nH]1 [5-Fluorouracil]
Protocol: as §2

Docetaxel = compound: CC(=O)O[C@@]12CO[C@@H]1C[C@H](O)[C@@]1(C)C(=O)[C@H](O)C3=C(C)[C@@H](OC(=O)[C@H](O)[C@@H](NC(=O)OC(C)(C)C)c4ccccc4)C[C@@](O)([C@@H](OC(=O)c4ccccc4)[C@H]21)C3(C)C [Docetaxel]
Protocol: as §2

Dasatinib = compound: Cc1nc(Nc2ncc(C(=O)Nc3c(C)cccc3Cl)s2)cc(N2CCN(CCO)CC2)n1 [Dasatinib]
Protocol: as §2

Vandetanib = compound: COc1cc2/c(=N/c3ccc(Br)cc3F)nc[nH]c2cc1OCC1CCN(C)CC1 [Vandetanib]
Protocol: as §2

Methotrexate = compound: CN(Cc1cnc2nc(N)nc(N)c2n1)c1ccc(C(=O)N[C@@H](CCC(=O)O)C(=O)O)cc1 [Methotrexate]
Protocol: as §2

Mitoxantrone = compound: O=C1c2c(O)ccc(O)c2C(=O)c2c(NCCNCCO)ccc(NCCNCCO)c21 [Mitoxantrone]
Protocol: as §2

Tipifarnib = compound: Cn1cncc1[C@@](N)(c1ccc(Cl)cc1)c1ccc2c(c1)c(-c1cccc(Cl)c1)cc(=O)n2C [Tipifarnib]
Protocol: as §2

Gefitinib = compound: COc1cc2ncnc(Nc3ccc(F)c(Cl)c3)c2cc1OCCCN1CCOCC1 [Gefitinib]
Protocol: as §2

Panobinostat = compound: Cc1[nH]c2ccccc2c1CCNCc1ccc(/C=C/C(=O)NO)cc1 [Panobinostat]
Protocol: as §2

ARQ197 = compound: O=C1NC(=O)[C@@H](c2cn3c4c(cccc24)CCC3)[C@@H]1c1c[nH]c2ccccc12 [ARQ197]
Protocol: as §2

Sunitinib = compound: CCN(CC)CCNC(=O)c1c(C)[nH]c(/C=C2\C(=O)Nc3ccc(F)cc32)c1C [Sunitinib]
Protocol: as §2

Cisplatin = compound: N.N.[Cl][Pt][Cl] [Cisplatin]
Protocol: as §2

Test System	IC50 (SRB growth assay) (Sirolimus) [nM]	IC50 (SRB growth assay) (Bortezomib) [nM]	IC50 (SRB growth assay) (17-AAG) [nM]	IC50 (SRB growth assay) (Paclitaxel) [nM]	IC50 (SRB growth assay) (Vorinostat) [nM]	IC50 (SRB growth assay) (Erlotinib) [nM]	IC50 (SRB growth assay) (Brivanib) [nM]	IC50 (SRB growth assay) (Azacitidine) [nM]	IC50 (SRB growth assay) (MI-219) [nM]	IC50 (SRB growth assay) (Lapatinib) [nM]	IC50 (SRB growth assay) (Serdemetan) [nM]	IC50 (SRB growth assay) (Belinostat) [nM]	IC50 (SRB growth assay) (Quisinostat) [nM]	IC50 (SRB growth assay) (Tamoxifen) [nM]	IC50 (SRB growth assay) (Doxorubicin) [nM]	IC50 (SRB growth assay) (Decitabine) [nM]	IC50 (SRB growth assay) (Nutlin-3) [nM]	IC50 (SRB growth assay) (Sorafenib) [nM]	IC50 (SRB growth assay) (5-Fluorouracil) [nM]	IC50 (SRB growth assay) (Docetaxel) [nM]	IC50 (SRB growth assay) (Dasatinib) [nM]	IC50 (SRB growth assay) (Vandetanib) [nM]	IC50 (SRB growth assay) (Methotrexate) [nM]	IC50 (SRB growth assay) (Mitoxantrone) [nM]	IC50 (SRB growth assay) (Tipifarnib) [nM]	IC50 (SRB growth assay) (Gefitinib) [nM]	IC50 (SRB growth assay) (Panobinostat) [nM]	IC50 (SRB growth assay) (ARQ197) [nM]	IC50 (SRB growth assay) (Sunitinib) [nM]	IC50 (SRB growth assay) (Cisplatin) [nM]
BT 20	0.232	13.9	535	1.79	586	6140	> 10000	1140	> 10000	5800	2270	197	8.27	49.4	10.5	> 10000	> 10000	3780	2830	0.541	> 10000	9410	> 10000	10.9	31.9	> 10000	7.93	511	> 10000	> 10000
OCUB-M	0.132	3.35	119	0.888	520	9580	> 10000	1690	> 10000	2200	2850	133	5.92	> 10000	1.98	3680	> 10000	3830	1880	0.279	> 10000	2770	6.6	1.27	156	> 10000	8.13	483	3520	> 10000
HCC 1569	0.355	5.08	90	66.2	1070	3240	> 10000	2620	> 10000	857	1800	521	7.46	5680	42.1	> 10000	> 10000	4350	8210	7.63	381	2070	> 10000	31.4	938	7430	14.4	619	6490	> 10000
ZR 75-1	0.244	5.51	45.9	6.65	2980	> 10000	> 10000	3750	> 10000	6330	822	1680	27.1	4490	44.9	> 10000	> 10000	5980	2320	4.52	1660	3820	34.5	10.2	822	> 10000	46.8	733	> 10000	> 10000
SKBR 3	0.587	5.5	18.9	1.68	499	3740	> 10000	2690	> 10000	43.7	1080	190	3.33	6720	20.4	2350	> 10000	4790	4770	0.589	> 10000	3490	9.97	4.74	279	2630	5.39	404	3410	> 10000
HCC 202	5.17	1.51	49.5	4.3	1130	6060	> 10000	4630	> 10000	199	5010	487	6.54	> 10000	76.5	> 10000	> 10000	5170	7370	1.72	1200	3780	47.6	213	> 10000	8050	16.7	427	> 10000	> 10000
MDA-MB 436	3.42	6.95	34.9	2.3	1890	1970	> 10000	1670	> 10000	4660	1000	637	23.5	> 10000	5.7	783	> 10000	4830	981	0.772	1290	4100	27.7	0.781	703	4960	34.6	359	2170	1400
